According to patent US20240139185A1, “COMPOUNDS THAT PARTICIPATE IN COOPERATIVE BINDING AND USES THEREOF” (Revolution Medicines, Inc., priority 2018, published 2024):

Columns and labels:
[1] = target: T1, BRAF-GTP-KRAS-G12C complex (Homo sapiens, UniProt P01116+P62937, G12C); experiment: KRAS-BRAF complex disruption through competition with CYPA-compound by TR-FRET; conditions: biochemical BRAF-KRAS G12C-GTP disruption assay EC50, with CYPA
T1 construct: 50 nM of His6-KRas G12C-GTP (1-169); 500 nM of tagless CypA (1-165)
How it was run: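 His6-KRAS G12C-GTP (1-169, 50 nM) with tagless CypA (1-165, 500 nM) was incubated with compound for 3 h at room temperature in pH 7.3 Hepes/NaCl/MgCl2 buffer containing GST-BRAF RBD. Anti-His Eu (10 nM) and anti-GST APC (50 nM) were then added for 1.5 h, and the 665/615 nm TR-FRET ratio was read. EC50 from 4-parameter fit; for specificity, wild-type KRAS replaced G12C, and CypA was omitted to test presenter dependence.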

KRAS-G12C = target: T2, KRAS-G12C (Homo sapiens, UniProt P01116+P62937, G12C); experiment: Percentage of crosslinking to KRAS-G12C in the presence of BME and CYPA (TOF-MS); type: biochemical; conditions: 5 min incubation; compound 2 μM, CypA 5 μM, G12C-GMPNP 0.5 μM, BME
T2 construct: CypA 1-165 (final concentration 5 μM)
Experimental: • 1. 10×Incubation buffer: 125 mM HEPES pH 7.4, 750 mM NaCl, 10 mM MgCl2 • 2. 50 μM Protein A stock (CypA) in incubation buffer • 3. 5 μM Protein B (G12C-GMPNP) stock in incubation buffer • 4. 20 μM compound stock in 1×Incubation buffer with 10% DMSO • 5. 25 mM BME stock solution (prepared by diluting the BME stock in Milli Q water)
CypA 1-165 (final concentration 5 μM), test compound (final concentration 2 μM) and G12C-GMPNP (final concentration 0.5 μM) were incubated in the incubation buffer ([…]) for the requisite amount of time at room temperature. The samples were quenched with formic acid, final concentration 0.5%. 10 μL aliquots were injected to TOF-MS.
Sequence of Addition for a Final Incubation Volume of 50 μL • 1. 5 μL 10×incubation buffer • 2. 28 ul H2O • 3. 2 μL from 25 mM BME stock • 4. 5 μL CypA at 50 uM • 5. 5 μL from 5 μM G12C-GMPNP • 6. 5 μL compound from 20 μM compound stock
LC-MS is performed on an Agilent 6230 TOF-LC mass spectrometer equipped with an electrospray probe operated in positive ionization mode. 10 μL samples are injected on a Sepax Bio-C4, 300 Å, 2.1×100 mm column. The mobile phase is 0.1% (vol/vol) formic acid and 0.1% 1 mM ammonium formate in 95% water, 4.8% acetonitrile (A) and 0.1% (vol/vol) formic acid and 0.1% 1 mM ammonium formate in 95% acetonitrile and 4.8% water (B). The separation is performed by a 9 min total gradient consisting of 5 min linear gradient from 25% to 50% B, and a wash at 100% B for 1.25 min, all at a flow rate of 0.6 mL/min (see attached timetable below). Mass spectrometer source conditions were capillary voltage, 4,000 V; cone voltage, 120 V; source temperature, 275° C.; scan range, 100-2,000 a.m.u. with a cycle time of 1 s.
The observed mass is generated by averaging the major peak in the total ion current (TIC). The charge-state series of the species are deconvoluted using Agilent MassHunter Bioconfirm using maximum entropy setting (range is set to 17000-23000 Da). […]

EC50 [1] [nM] | % Crosslinking with KRAS-G12C-GTP in presence of CYPA, 5 min incubation (KRAS-G12C) [%] | SMILES
≤ 500 | 27 | CC1COC(=O)C2CCCN(N2)C(=O)C(NC(=O)C(C(C)C)N(C)C(=O)C2CN(C(=O)CCl)C2)Cc2cc(O)cc(c2)-c2ccc3c(c2)c(cn3CC2COC2)C1 (mixture of isomers) [Compound 226]
≤ 500 | 83 | CC1COC(=O)C2CCCN(N2)C(=O)C(NC(=O)C(C(C)C)N(C)C(=O)C2CN(C(=O)CCl)C2)Cc2cc(O)cc(c2)-c2ccc3c(S(C)(=O)=O)cn(c3c2)C1 (single isomer, unassigned) [Compound 110]
